From ChEMBL document CHEMBL1201862, “PubChem BioAssay data set” (2004)
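Briefly, cells in 96-well plates were exposed to five compound concentrations for 48 h, and endpoints were estimated by linear interpolation. Abbreviation: GI50, concentration required for 50% inhibition of growth.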 Activity calls are given as the source filed them. Cut-off read from the data, not from the text of the source: active = GI50 up to about 1.1 µM and inactive = higher.

Experiments:
Assay in all cases: NCI-60 cell line screen, 48 h
OVCAR-5 = tested on: OVCAR-5
OVCAR-4 = tested on: OVCAR-4
Hs-578T = tested on: Hs-578T
NCI-H522 = tested on: NCI-H522
T47D = tested on: T47D
TK-10 = tested on: TK-10
NCI-H460 = tested on: NCI-H460
786-0 = tested on: 786-0
M14 = tested on: M14
SW-620 = tested on: SW-620
UO-31 = tested on: UO-31
RXF 393 = tested on: RXF 393
MDA-N = tested on: MDA-N
MDA-MB-231 = tested on: MDA-MB-231
MDA-MB-435 = tested on: MDA-MB-435
NCI-H226 = tested on: NCI-H226
HOP-62 = tested on: HOP-62
HCT-116 = tested on: HCT-116
SN12C = tested on: SN12C
MCF7 = tested on: MCF7
A498 = tested on: A498
SK-OV-3 = tested on: SK-OV-3
SNB-19 = tested on: SNB-19
BT-549 = tested on: BT-549
MOLT-4 = tested on: MOLT-4
DU-145 = tested on: DU-145
SF-268 = tested on: SF-268
HCC 2998 = tested on: HCC 2998
SK-MEL-28 = tested on: SK-MEL-28
HOP-92 = tested on: HOP-92
OVCAR-3 = tested on: OVCAR-3
LOX IMVI = tested on: LOX IMVI
SF-539 = tested on: SF-539
HT-29 = tested on: HT-29
COLO 205 = tested on: COLO 205
UACC-257 = tested on: UACC-257
ACHN = tested on: ACHN
UACC-62 = tested on: UACC-62
PC-3 = tested on: PC-3
U-251 = tested on: U-251
RPMI-8226 = tested on: RPMI-8226
SK-MEL-2 = tested on: SK-MEL-2
EKVX = tested on: EKVX
HCT-15 = tested on: HCT-15
K562 = tested on: K562
OVCAR-8 = tested on: OVCAR-8
A549 = tested on: A549
SK-MEL-5 = tested on: SK-MEL-5
CAKI-1 = tested on: CAKI-1
IGROV-1 = tested on: IGROV-1
SNB-75 = tested on: SNB-75
SF-295 = tested on: SF-295
NCI-H23 = tested on: NCI-H23
HL-60 = tested on: HL-60
CCRF-CEM = tested on: CCRF-CEM
Malme-3M = tested on: Malme-3M
NCI/ADR-RES = tested on: NCI/ADR-RES
KM12 = tested on: KM12
SR = tested on: SR

## OC1CSCCCSCCSCCCSC1
OVCAR-5
  GI50: > 100 µM (inactive)
OVCAR-4
  GI50: > 100 µM (inactive)
Hs-578T
  GI50: > 100 µM (inactive)
NCI-H522
  GI50: > 100 µM (inactive)
T47D
  GI50: > 100 µM (inactive)
TK-10
  GI50: > 100 µM (inactive)
NCI-H460
  GI50: > 100 µM (inactive)
786-0
  GI50: > 100 µM (inactive)
M14
  GI50: > 100 µM (inactive)
SW-620
  GI50: > 100 µM (inactive)
UO-31
  GI50: > 100 µM (inactive)
RXF 393
  GI50: > 100 µM (inactive)
MDA-N
  GI50: > 100 µM (inactive)
MDA-MB-231
  GI50: > 100 µM (inactive)
MDA-MB-435
  GI50: > 100 µM (inactive)
NCI-H226
  GI50: > 100 µM (inactive)
HOP-62
  GI50: > 100 µM (inactive)
HCT-116
  GI50: > 100 µM (inactive)
SN12C
  GI50: > 100 µM (inactive)
MCF7
  GI50: > 100 µM (inactive)
A498
  GI50: > 100 µM (inactive)
SK-OV-3
  GI50: > 100 µM (inactive)
SNB-19
  GI50: > 100 µM (inactive)
BT-549
  GI50: > 100 µM (inactive)
MOLT-4
  GI50: 12.1 µM (inactive)
DU-145
  GI50: > 100 µM (inactive)
SF-268
  GI50: > 100 µM (inactive)
HCC 2998
  GI50: > 100 µM (inactive)
SK-MEL-28
  GI50: > 100 µM (inactive)
HOP-92
  GI50: > 100 µM (inactive)
OVCAR-3
  GI50: > 100 µM (inactive)
LOX IMVI
  GI50: > 100 µM (inactive)
SF-539
  GI50: > 100 µM (inactive)
HT-29
  GI50: > 100 µM (inactive)
COLO 205
  GI50: > 100 µM (inactive)
UACC-257
  GI50: > 100 µM (inactive)
ACHN
  GI50: > 100 µM (inactive)
UACC-62
  GI50: > 100 µM (inactive)
PC-3
  GI50: > 100 µM (inactive)
U-251
  GI50: > 100 µM (inactive)
RPMI-8226
  GI50: 37.6 µM (inactive)
SK-MEL-2
  GI50: > 100 µM (inactive)
EKVX
  GI50: > 100 µM (inactive)
HCT-15
  GI50: > 100 µM
K562
  GI50: > 100 µM (inactive)
OVCAR-8
  GI50: > 100 µM (inactive)
A549
  GI50: > 100 µM (inactive)
SK-MEL-5
  GI50: > 100 µM (inactive)
CAKI-1
  GI50: > 100 µM (inactive)
IGROV-1
  GI50: > 100 µM (inactive)
SNB-75
  GI50: > 100 µM (inactive)
SF-295
  GI50: > 100 µM (inactive)
NCI-H23
  GI50: > 100 µM (inactive)

## CCC1(CC)C(=O)CC[C@@]2(C)C1=CC[C@H]1[C@@H]3CC[C@H](O)[C@@]3(C)CC[C@@H]12
OVCAR-5
  GI50: 53.3 µM (inactive)
OVCAR-4
  GI50: 34.8 µM (inactive)
Hs-578T
  GI50: 24.4 µM (inactive)
NCI-H522
  GI50: 19.8 µM (inactive)
T47D
  GI50: 28.9 µM (inactive)
TK-10
  GI50: 19.9 µM (inactive)
NCI-H460
  GI50: 16.3 µM (inactive)
786-0
  GI50: 15.5 µM (inactive)
M14
  GI50: 43.4 µM (inactive)
SW-620
  GI50: 19.1 µM (inactive)
UO-31
  GI50: 18.4 µM (inactive)
HL-60
  GI50: 18.6 µM (inactive)
RXF 393
  GI50: 36.6 µM (inactive)
MDA-N
  GI50: 31.3 µM (inactive)
MDA-MB-231
  GI50: 47.9 µM (inactive)
MDA-MB-435
  GI50: 61 µM (inactive)
NCI-H226
  GI50: 29 µM (inactive)
HOP-62
  GI50: 19.1 µM (inactive)
HCT-116
  GI50: 22.2 µM (inactive)
SN12C
  GI50: 16.7 µM (inactive)
A498
  GI50: 23.8 µM (inactive)
SK-OV-3
  GI50: 46.1 µM (inactive)
SNB-19
  GI50: 24 µM (inactive)
BT-549
  GI50: > 100 µM (inactive)
MOLT-4
  GI50: 25.6 µM (inactive)
DU-145
  GI50: 33.8 µM (inactive)
SF-268
  GI50: 32.5 µM (inactive)
SK-MEL-28
  GI50: > 100 µM (inactive)
HOP-92
  GI50: 37.5 µM (inactive)
OVCAR-3
  GI50: 19.7 µM (inactive)
LOX IMVI
  GI50: 19.4 µM (inactive)
SF-539
  GI50: 29.2 µM (inactive)
HT-29
  GI50: 15 µM (inactive)
COLO 205
  GI50: 28 µM (inactive)
CCRF-CEM
  GI50: 19.6 µM (inactive)
Malme-3M
  GI50: 36.1 µM (inactive)
UACC-257
  GI50: 26.7 µM (inactive)
ACHN
  GI50: 40.4 µM (inactive)
UACC-62
  GI50: 54.7 µM (inactive)
PC-3
  GI50: 30.3 µM (inactive)
U-251
  GI50: 18.1 µM (inactive)
NCI/ADR-RES
  GI50: 43.2 µM (inactive)
KM12
  GI50: 32.1 µM (inactive)
RPMI-8226
  GI50: 12.1 µM (inactive)
SK-MEL-2
  GI50: 79.3 µM (inactive)
EKVX
  GI50: 28.5 µM (inactive)
HCT-15
  GI50: 46.9 µM
K562
  GI50: 16.4 µM (inactive)
OVCAR-8
  GI50: 23.5 µM (inactive)
A549
  GI50: 13.5 µM (inactive)
SK-MEL-5
  GI50: 47.3 µM (inactive)
CAKI-1
  GI50: 83.8 µM (inactive)
SR
  GI50: 15.4 µM (inactive)
IGROV-1
  GI50: 37.8 µM (inactive)
SNB-75
  GI50: 35.6 µM (inactive)
SF-295
  GI50: 22.8 µM (inactive)
NCI-H23
  GI50: 48.9 µM (inactive)
